Source: patent US20180002366A1, “4'-SUBSTITUTED NUCLEOSIDE REVERSE TRANSCRIPTASE INHIBITORS” (MERCK SHARP & DOHME CORP., priority 2014, published 2018)

Legend:
MT4-GFP cells = assay: CTG Assay: cytotoxicity in CellTiter-Glo Luminescent Cell Viability Assay; type: cell-based; details: 10% normal human serum, 48 h incubation, top concentration 8.4 μM
Method: Assessing Cytotoxicity in CellTiter-Glo Luminescent Cell Viability Assay (CTG).
Cells were then washed and resuspended in RPMI 1640 containing 10% normal human serum at a density of 0.8×10^5 cells/mL. […] Controls included DMSO. […] CTG reagent (Promega, G7573) was added to the cell plates after 48 h incubation according to the manufacturer's description. Luminescence signals were recorded on EnVision plate reader (PerkinElmer). LD50s were determined by non-linear 4-parameter curve fitting. The resulting data is shown in Table 3 with the marketed HIV nucleoside reverse transcriptase inhibitor AZT (azidothymidine, zidovudine) included as a control.

[1] = test system: HIV-1 (H9IIIB virus) replication in MT4-GFP cells; assay: Viking Assay: antiviral potency in a multiple round HIV-1 infection assay; type: cell-based; details: inhibition of reproductive ratio R0 between ~48 h and ~72 h post-infection, read-out: Viking, IC50 (10% NHS)
Method: Assessing Antiviral Potency in a Multiple Round HIV-1 Infection Assay.
Cells were then washed and re-suspended in either RPMI 1640 containing 10% or 50% normal human serum at 1.6×10^5 cells/mL (10% or 50% NHS conditions) or in 100% normal human serum at 2×10^5 cells/mL (100% NHS conditions).
The increase in the number of green cells over ˜24 h period gives the reproductive ratio, R0, which is typically 5-15 and has been shown experimentally to be in logarithmic phase (data not shown). Inhibition of R0 is calculated for each well, and IC50s determined by non-linear 4-parameter curve fitting.

[2] = test system: HIV-1 (H9IIIB virus) replication in MT4-GFP cells; assay: Antiviral Persistence assay; details: for Fold shift IC50 72 h/24 h: ratio of IC50 72 h to IC50 24 h
Method: HIV-1 replication was monitored using MT4-gag-GFP clone D3 (hereafter designate MT4-GFP), which are MT-4 cells modified to harbor a GFP reporter gene, the expression of which is dependent on the HIV-1 expressed proteins tat and rev. Productive infection of an MT4-GFP cell with HIV-1 results in GFP expression approximately 24 h post-infection. MT4-GFP cells were maintained at 37° C./5% CO2/90% relative humidity in RPMI 1640 supplemented with 10% fetal bovine serum, 100 U/mL penicillin/streptomycin, and 400 μg/mL G418 to maintain the reporter gene. For 72 hour time point persistence assay (72 h plate) and 24 hour time point control assay (24 h plate), MT4-GFP cells were washed and re-suspended in RPMI 1640 containing 10% normal human serum at either 1.6×10^5 or 2.4×10^5 cells/mL (10% NHS). Compound plates were prepared by dispensing compounds dissolved in DMSO into wells of 384 well cell culture plates ([…]) using an ECHO acoustic dispenser. Each compound was tested in a 10 point serial 3-fold dilution (typical final concentrations: 4.2 μM-0.21 nM). Controls included no inhibitor (DMSO only) and a combination of three antiviral agents (efavirenz, indinavir, and an integrase strand transfer inhibitor at final concentrations of 4 μM each). Cells were added (50 μL/well) to compound plates and were incubated at 37° C./5% CO2/90% relative humidity for 24 hours. The cells were washed with 5×40 uL of RPMI 1640 supplemented with 10% NHS and 100 U/mL penicillin/streptomycin. 72 h plate was return back to 37° C. incubator for additional 48 hour incubation. 40 uL of the cells from each well of the 24 h plate or the 72 h plate (after 48 hour incubation post wash) were transferred to a poly-D-lysine coated plate. The cells were then infected with H9IIIB virus at an approximate multiplicity of infection of 0.1 in the same incubation conditions.
Infected cells were quantified at ˜24 h post-infection, by counting the number of green cells in each well using an Acumen eX3 scanner. IC50s for the compounds in Table 4 were determined by non-linear 4-parameter curve fitting.
The antiviral persistence assay is meant to assess for the persistence of antiviral activity upon removal of the nucleoside. […] The publication AIDS Research and Therapy, 2009, 6:5, highlights the value of antiviral persistence.

[3] = target: T1, adenosine deaminase (ADA) type 1 (Homo sapiens, UniProt P00813); assay: Adenosine Deaminase (ADA) Half-Life; type: in vitro ADME; details: human, human adenosine deaminase (ADA) type 1 in Tris-HCl buffer; time for 50% conversion to inosine product; Tris-HCl buffer pH 7.5, 40° C., LCMS
T1 sequence (P00813 1-363): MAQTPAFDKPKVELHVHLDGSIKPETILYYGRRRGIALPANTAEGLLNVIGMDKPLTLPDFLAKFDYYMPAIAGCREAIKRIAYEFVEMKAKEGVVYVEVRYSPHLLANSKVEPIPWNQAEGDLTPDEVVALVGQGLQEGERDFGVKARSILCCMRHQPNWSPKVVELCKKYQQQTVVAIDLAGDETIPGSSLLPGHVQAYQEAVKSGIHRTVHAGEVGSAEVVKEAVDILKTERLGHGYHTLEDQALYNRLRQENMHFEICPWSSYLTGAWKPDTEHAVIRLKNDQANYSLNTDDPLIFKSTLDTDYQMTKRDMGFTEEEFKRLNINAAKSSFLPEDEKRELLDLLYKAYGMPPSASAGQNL
Method: (§1) The data in Table 5 was generated by reacting a substrate compound with human ADA type 1 in the presence of Tris-HCl buffer (pH 7.5) at 40° C. and monitoring by LCMS for consumption of starting material. The time necessary for 50% conversion to the corresponding inosine product is noted as the T1/2 in Table 5. It is known that deamination by adenosine deaminase decreases the therapeutic potential of adenosine-like nucleoside inhibitors especially in vivo (see references below). […] It is possible that compounds that are more resistant to ADA will have better pharmacokinetic properties.
(§2) Tris-HCl buffer (pH 7.5, 5 mL) was injected into a 25-mL round-bottom flask. The mixture was heated to reflux for 30 minutes. Then the mixture was cooled to 30° C. and (2R,3S,5R)-5-(4-amino-5-fluoro-7H-pyrrolo[2,3-d]pyrimidin-7-yl)-2-ethynyl-2-(hydroxymethyl)tetrahydrofuran-3-ol (Example compound 2, 7 mg, 0.024 mmol) was added, followed by the addition of adenosine deaminase (3 mg, ˜33 units). The resulting mixture was stirred at 40° C. and stirred for 4 days. The reaction mixture was concentrated under vacuum and the residue was purified by preparative-HPLC with the following conditions: Column: X-Bridge C18, 19*150 mm, 5 um; mobile phase, water with 10 mmol ammonium bicarbonate and acetonitrile (6% acetonitrile up to 30% in 5 min, hold 95% for 2 min, down to 40% in 2 min); Detector, uv 254&220 nm. The product-containing fractions were collected and lyophilized to give the title compound 2A as a solid. ^1H-NMR: (400 MHz, d6-DMSO, ppm): δ 11.58 (brs, 1H), 7.86 (s, 1H), 7.22 (d, J=1.6 Hz, 1H), 6.44 (t, J=5.8 Hz, 1H), 5.47 (d, J=4.8 Hz, 1H), 5.26-5.22 (m, 1H), 4.39-4.35 (m, 1H), 3.55-3.45 (m, 2H), 3.42 (s, 1H), 2.41-2.24 (m, 2H). ^19F-NMR: (376 MHz, d6-DMSO, ppm): δ −165.50 (s, 1F). LC-MS: (ES, m/z): 294.15 [M+H]^+.
(§3) Using the described procedures, conversion of compounds 4, 8 and 9 to 4A, 8A and 9A, respectively, was not detected (NA=substrate insensitive to adenosine deaminase).

human ADA type 1 = target: T2, human ADA type 1 (Homo sapiens, UniProt P00813); assay: Adenosine Deaminase (ADA) Half-Life; type: in vitro ADME; details: Tris-HCl buffer pH 7.5, 40° C., procedures as for compound 2 to 2A
T2 sequence (P00813 1-363): T1 sequence (P00813 1-363)
Method: as §1, §2, §3

[4] = Human immunodeficiency virus 1, 10% normal human serum
[5] = Human immunodeficiency virus 1, 24 h, read-out: IC50 24 h (nM)
[6] = Human immunodeficiency virus 1, read-out: IC50 72 h (nM)

Molecule	LD50 (MT4-GFP cells)	IC50 ([1]; 10% normal human serum)	IC50 ([2]; read-out: IC50 24 h, 24 h plate: cells incubated with compound 24 hours, washed, then infected, 10% NHS)	IC50 ([2]; read-out: IC50 72 h, 72 h plate: compound 24 hours, washed, additional 48 hour incubation, then infected, 10% NHS)	half-life at 4.8 mM [3]	IC50 [1, 4]	IC50 [2, 5]	IC50 [2, 6]	Fold shift IC50 72 h/24 h [2]	conversion to the corresponding inosine product by adenosine deaminase (human ADA type 1)
(2R,3S,5R)-5-(4-aminopyrrolo[2,1-f][1,2,4]triazin-7-yl)-3-hydroxy-2-(hydroxymethyl)tetrahydrofuran-2-carbonitrile [Example 12]	>8.4 µM	735 nM	880 nM	25000 nM	–	–	–	–	–	–
C#C[C@]1(CO)O[C@@H](n2cc(F)c3c(N)ncnc32)C[C@@H]1O [Example 2, (2R,3S,5R)-5-(4-amino-5-fluoro-7H-pyrrolo[2,3-d]pyrimidin-7-yl)-2-ethynyl-2-(hydroxymethyl)tetrahydrofuran-3-ol]	–	–	–	–	16 h	1.6 nM	6.6 nM	193 nM	29	–
C#C[C@]1(CO)O[C@@H](c2ccc3c(N)ncnn23)C[C@@H]1O [Example 11, (2R,3S,5R)-5-(4-aminopyrrolo[2,1-f][1,2,4]triazin-7-yl)-2-ethynyl-2-(hydroxymethyl)tetrahydrofuran-3-ol]	–	–	–	–	3 h	17.2 nM	12.4 nM	1950 nM	157	–
C#C[C@]1(CO)O[C@@H](n2ccc3c(N)ncnc32)C[C@@H]1O [Example 1, (2R,3S,5R)-5-(4-amino-7H-pyrrolo[2,3-d]pyrimidin-7-yl)-2-ethynyl-2-(hydroxymethyl)tetrahydrofuran-3-ol]	–	–	–	–	288 h	1.3 nM	0.8 nM	36 nM	45	–
C#C[C@]1(CO)O[C@@H](n2ccc3c(N)nc(F)nc32)C[C@@H]1O [Example 9, (2R,3S,5R)-5-(4-amino-2-fluoro-7H-pyrrolo[2,3-d]pyrimidin-7-yl)-2-ethynyl-2-(hydroxymethyl)tetrahydrofuran-3-ol]	–	–	–	–	–	10.2 nM	37 nM	270 nM	7.3	not detected
Nc1ncnc2c1ncn2[C@H]1C[C@H](O)[C@@H](CO)O1 [Deoxy- adenosine, deoxyadenosine, reference compound]	–	–	–	–	< 0.167 h	–	–	–	–	–
C#C[C@]1(CO)O[C@@H](c2cnc3c(N)ncnn23)C[C@@H]1O [Example 22, (2R,3S,5R)-5-(4-aminoimidazo[2,1-f][1,2,4]triazin-7-yl)-2-ethynyl-2-(hydroxymethyl)tetrahydrofuran-3-ol]	–	–	–	–	0.167 h	38 nM	38 nM	350 nM	9.2	–
C#C[C@]1(CO)O[C@@H](n2ccc3c(N)nc(N)nc32)C[C@@H]1O [Example 8, (2R,3S,5R)-5-(2,4-diamino-7H-pyrrolo[2,3-d]pyrimidin-7-yl)-2-ethynyl-2-(hydroxymethyl)tetrahydrofuran-3-ol]	–	–	–	–	–	194 nM	840 nM	29000 nM	34.5	not detected
C#C[C@]1(CO)O[C@@H](n2ccc3c(N)nc(Cl)nc32)C[C@@H]1O [Example 4, (2R,3S,5R)-5-(4-amino-2-chloro-7H-pyrrolo[2,3-d]pyrimidin-7-yl)-2-ethynyl-2-(hydroxymethyl)tetrahydrofuran-3-ol]	–	–	–	–	–	4 nM	9.6 nM	360 nM	37.5	not detected
C#C[C@]1(CO)O[C@@H](c2cnn3c(N)ncnc23)C[C@@H]1O [Example 23, (2R,3S,5R)-5-(4-aminopyrazolo[1,5-a][1,3,5]triazin-8-yl)-2-ethynyl-2-(hydroxymethyl)tetrahydrofuran-3-ol]	–	–	–	–	0.167 h	64 nM	64 nM	700 nM	10.9	–
C#C[C@]1(CO)O[C@@H](n2cnc3c(N)ncnc32)C[C@@H]1O [EDA, (2R,3S,5R)-5-(6-amino-9H-purin-9-yl)-2-ethynyl-2-(hydroxymethyl)tetrahydrofuran-3-ol, reference compound]	–	–	–	–	< 1 h	–	–	–	–	–
